# Measured values published in ChEMBL document CHEMBL1201862, “PubChem BioAssay data set” (2004).
# Calls of active or inactive are those of the source.
# Tests used:
# fMet-Leu-Phe receptor = target: T1, fMet-Leu-Phe receptor (Homo sapiens, UniProt P21462); experiment: FPR ligands, dose response (AID 519); assay type: functional
# T1 sequence (P21462 whole entry): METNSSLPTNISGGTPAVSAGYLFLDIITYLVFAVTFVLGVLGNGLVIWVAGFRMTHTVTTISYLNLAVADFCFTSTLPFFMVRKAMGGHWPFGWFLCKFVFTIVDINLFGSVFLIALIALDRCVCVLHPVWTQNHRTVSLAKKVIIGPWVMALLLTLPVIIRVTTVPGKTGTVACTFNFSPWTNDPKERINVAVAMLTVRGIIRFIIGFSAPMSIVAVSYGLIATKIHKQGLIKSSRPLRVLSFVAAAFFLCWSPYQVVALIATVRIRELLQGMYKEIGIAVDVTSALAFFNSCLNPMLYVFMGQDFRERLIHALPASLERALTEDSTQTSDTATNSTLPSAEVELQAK
# [1] = target: T2, Corticotropin-releasing factor receptor 2/Corticotropin-releasing factor-binding protein (Homo sapiens, UniProt P24387+Q13324); experiment: Dose Response confirmation of uHTS hits for small molecule antagonists of the CRF-binding protein and CRF-R2 receptor complex.; assay type: functional; conditions: read-out: IC50_Mean
# T2 sequence (Q13324 whole entry): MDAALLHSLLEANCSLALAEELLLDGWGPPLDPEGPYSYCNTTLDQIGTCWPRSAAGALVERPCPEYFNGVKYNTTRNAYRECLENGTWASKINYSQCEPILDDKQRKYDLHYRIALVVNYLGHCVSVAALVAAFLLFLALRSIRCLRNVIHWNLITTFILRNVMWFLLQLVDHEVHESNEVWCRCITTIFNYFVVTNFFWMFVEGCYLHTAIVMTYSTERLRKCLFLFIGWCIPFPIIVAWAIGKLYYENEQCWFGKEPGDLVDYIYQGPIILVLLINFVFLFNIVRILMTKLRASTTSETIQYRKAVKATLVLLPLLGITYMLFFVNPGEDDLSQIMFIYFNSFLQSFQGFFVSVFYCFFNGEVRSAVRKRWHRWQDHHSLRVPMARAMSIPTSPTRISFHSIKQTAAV
# T2 sequence (P24387 whole entry): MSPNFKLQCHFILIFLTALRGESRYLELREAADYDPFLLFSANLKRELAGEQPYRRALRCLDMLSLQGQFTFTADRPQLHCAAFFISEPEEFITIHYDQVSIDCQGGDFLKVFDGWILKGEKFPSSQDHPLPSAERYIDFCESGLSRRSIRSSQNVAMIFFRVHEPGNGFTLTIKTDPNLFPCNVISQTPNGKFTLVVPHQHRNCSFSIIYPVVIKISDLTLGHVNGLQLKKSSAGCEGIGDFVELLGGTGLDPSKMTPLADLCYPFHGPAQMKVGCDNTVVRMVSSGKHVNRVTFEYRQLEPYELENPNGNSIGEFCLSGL
# [2] = target: T2, Corticotropin-releasing factor receptor 2/Corticotropin-releasing factor-binding protein; experiment: activators of CRF receptor 2 with binding protein – uHTS hits, confirmation (AID 602473); assay type: functional; conditions: read-out: EC50_Mean
# Prothrombin = Prothrombin (Homo sapiens, UniProt P00734); experiment: Thrombin 1536 HTS Dose Response Confirmation. [Related pubchem assays: 1046 (Thrombin 1536 HTS; hits were confirmed in this assay)]; assay type: functional
# [3] = tested on: Streptococcus sp. 'group A'; experiment: growth inhibition of control SK(-) GAS strain, dose response, counter-screen for streptokinase expression inhibitor project, luminescence, kanamycin, BacTiterGlo, confirmation (AID 1900); assay type: functional, organism-based
# Streptococcus = experiment: Group A Streptococcus viability loss, dose response, counter-screen for streptokinase expression inhibitor project, luminescence, BacTiterGlo (AID 1915); assay type: functional, organism-based;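 further: potency for reduction of bacterial viability or growth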
# Streptokinase A = target: T3, Streptokinase A (Streptococcus pyogenes serotype M1, UniProt P10520); experiment: S. pyogenes streptokinase expression inhibitors, potency, dose response, plasminogen activation absorbance, OD405 (AID 1914); assay type: functional, Streptococcus pyogenes M1 GAS;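 further: secreted streptokinase activity via plasminogen activation per viability signal from cell pellet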
# T3 sequence (P10520 whole entry): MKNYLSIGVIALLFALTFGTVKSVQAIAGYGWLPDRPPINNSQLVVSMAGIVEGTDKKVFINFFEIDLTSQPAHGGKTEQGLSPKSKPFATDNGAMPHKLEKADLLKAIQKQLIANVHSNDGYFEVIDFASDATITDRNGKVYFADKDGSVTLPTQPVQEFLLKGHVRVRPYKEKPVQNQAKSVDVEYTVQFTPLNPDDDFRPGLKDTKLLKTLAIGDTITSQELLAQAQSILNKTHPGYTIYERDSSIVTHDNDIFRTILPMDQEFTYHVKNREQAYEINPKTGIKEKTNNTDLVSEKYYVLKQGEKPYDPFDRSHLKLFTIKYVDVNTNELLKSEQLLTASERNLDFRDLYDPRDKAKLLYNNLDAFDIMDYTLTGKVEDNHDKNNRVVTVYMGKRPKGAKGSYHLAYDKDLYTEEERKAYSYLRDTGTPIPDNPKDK
# [4] = non-specific cell cytotoxicity, dose response, cytotoxicity control for PAX8 inhibitor project, plate reader, dry powder samples (AID 743021); assay type: functional, cell-based
# [5] = Luminescence Cell-Based Dose Retest to Confirm Inhibitors of Cancer Stem Cells. [Related pubchem assays (depositor defined):AID2717, AID2721]; assay type: functional; conditions: Homo sapiens
# H9c2 = experiment: cells; assay type: functional, cell-based; conditions: Rattus norvegicus, H9c2, Myocardium;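 further: confirmatory concentration-response retest of ultra-high-throughput screening hits for modulation of myocardial damage; cell death induced by hydrogen peroxide oxidative stress; compound pretreatment for 60 min then peroxide exposure for 2 h; potency is for protecting the cells against peroxide damage rather than for killing them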
# Paired box protein Pax-8 = Paired box protein Pax-8 (Homo sapiens, UniProt Q06710); experiment: inhibitors of PAX8-driven TPO luciferase reporter, dose response, RMG-I cells, cherry-pick (AID 687027); assay type: functional, cell-based;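 further: luciferase reporter driven by Pax8 target thyroperoxidase promoter measured by SteadyGlo luminescence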
# Sequence of Paired box protein Pax-8 (Q06710 whole entry): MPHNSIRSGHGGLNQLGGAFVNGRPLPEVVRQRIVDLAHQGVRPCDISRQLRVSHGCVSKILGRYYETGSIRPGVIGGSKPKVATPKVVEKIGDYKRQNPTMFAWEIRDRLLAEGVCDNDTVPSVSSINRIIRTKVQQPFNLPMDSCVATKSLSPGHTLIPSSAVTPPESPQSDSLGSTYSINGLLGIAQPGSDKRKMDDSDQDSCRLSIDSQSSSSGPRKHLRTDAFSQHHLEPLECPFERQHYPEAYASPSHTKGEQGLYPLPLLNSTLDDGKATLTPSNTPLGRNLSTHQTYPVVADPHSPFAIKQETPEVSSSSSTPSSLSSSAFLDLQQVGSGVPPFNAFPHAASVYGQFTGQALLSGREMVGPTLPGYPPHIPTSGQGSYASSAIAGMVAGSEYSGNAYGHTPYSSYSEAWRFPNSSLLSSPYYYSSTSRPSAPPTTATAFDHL
# Cytochrome P450 2C9 = Cytochrome P450 2C9 (Homo sapiens, UniProt P11712)
# Sequence of Cytochrome P450 2C9 (P11712 whole entry): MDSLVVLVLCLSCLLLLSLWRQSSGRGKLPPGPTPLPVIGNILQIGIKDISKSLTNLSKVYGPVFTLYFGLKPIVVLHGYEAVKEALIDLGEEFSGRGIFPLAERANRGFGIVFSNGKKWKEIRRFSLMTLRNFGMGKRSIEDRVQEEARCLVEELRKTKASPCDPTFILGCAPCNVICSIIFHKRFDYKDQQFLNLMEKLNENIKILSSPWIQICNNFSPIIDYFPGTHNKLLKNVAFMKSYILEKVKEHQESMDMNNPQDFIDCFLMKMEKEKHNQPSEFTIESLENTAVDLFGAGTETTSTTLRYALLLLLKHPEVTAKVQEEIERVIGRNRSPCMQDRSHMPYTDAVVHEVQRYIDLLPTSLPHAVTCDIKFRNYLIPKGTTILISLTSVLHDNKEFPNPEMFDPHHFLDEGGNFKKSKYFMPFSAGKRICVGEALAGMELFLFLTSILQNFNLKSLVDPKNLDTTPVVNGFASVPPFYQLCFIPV
# Cytochrome P450 2C19 = Cytochrome P450 2C19 (Homo sapiens, UniProt P33261); experiment: Cytochrome panel assay with activity outcomes. Panel member name: p450-cyp2c19 Compounds with AC50 equal or less than 10 uM are considered active; assay type: functional; conditions: read-out: AC50
# Sequence of Cytochrome P450 2C19 (P33261 whole entry): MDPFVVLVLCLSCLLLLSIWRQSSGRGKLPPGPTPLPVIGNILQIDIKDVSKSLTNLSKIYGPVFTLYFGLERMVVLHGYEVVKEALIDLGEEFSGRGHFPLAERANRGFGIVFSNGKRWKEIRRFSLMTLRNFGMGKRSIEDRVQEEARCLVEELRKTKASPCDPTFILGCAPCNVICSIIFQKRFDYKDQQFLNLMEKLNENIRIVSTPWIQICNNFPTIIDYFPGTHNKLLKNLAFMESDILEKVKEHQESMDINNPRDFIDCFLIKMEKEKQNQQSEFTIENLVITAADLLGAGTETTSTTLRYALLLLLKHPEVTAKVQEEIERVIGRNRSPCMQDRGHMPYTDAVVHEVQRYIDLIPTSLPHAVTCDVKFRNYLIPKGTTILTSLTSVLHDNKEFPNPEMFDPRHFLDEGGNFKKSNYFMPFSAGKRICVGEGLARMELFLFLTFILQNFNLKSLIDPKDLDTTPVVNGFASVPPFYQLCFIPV
# [6] = A Cell Based Secondary Assay To Explore Cytotoxicity of Compounds that Sensitize Mycobacterium Tuberculosis to Beta-Lactam Antibiotics.; assay type: functional
# [7] = target: Induced myeloid leukemia cell differentiation protein Mcl-1 (Homo sapiens, UniProt Q07820); assay type: functional
# Sequence of Induced myeloid leukemia cell differentiation protein Mcl-1 (Q07820 whole entry): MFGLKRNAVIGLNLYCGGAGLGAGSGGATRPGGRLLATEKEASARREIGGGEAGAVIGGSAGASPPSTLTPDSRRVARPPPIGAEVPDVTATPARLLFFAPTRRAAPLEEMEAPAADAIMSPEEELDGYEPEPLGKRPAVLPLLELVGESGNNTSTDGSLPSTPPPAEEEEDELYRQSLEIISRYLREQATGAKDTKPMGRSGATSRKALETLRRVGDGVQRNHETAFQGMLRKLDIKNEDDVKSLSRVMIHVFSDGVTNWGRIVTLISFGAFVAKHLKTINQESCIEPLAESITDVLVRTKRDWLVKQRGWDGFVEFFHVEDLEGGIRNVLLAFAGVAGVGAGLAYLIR
# [8] = target: T4, Histone-lysine N-methyltransferase NSD2 (Homo sapiens, UniProt O96028); assay type: biochemical
# T4 sequence (O96028 whole entry): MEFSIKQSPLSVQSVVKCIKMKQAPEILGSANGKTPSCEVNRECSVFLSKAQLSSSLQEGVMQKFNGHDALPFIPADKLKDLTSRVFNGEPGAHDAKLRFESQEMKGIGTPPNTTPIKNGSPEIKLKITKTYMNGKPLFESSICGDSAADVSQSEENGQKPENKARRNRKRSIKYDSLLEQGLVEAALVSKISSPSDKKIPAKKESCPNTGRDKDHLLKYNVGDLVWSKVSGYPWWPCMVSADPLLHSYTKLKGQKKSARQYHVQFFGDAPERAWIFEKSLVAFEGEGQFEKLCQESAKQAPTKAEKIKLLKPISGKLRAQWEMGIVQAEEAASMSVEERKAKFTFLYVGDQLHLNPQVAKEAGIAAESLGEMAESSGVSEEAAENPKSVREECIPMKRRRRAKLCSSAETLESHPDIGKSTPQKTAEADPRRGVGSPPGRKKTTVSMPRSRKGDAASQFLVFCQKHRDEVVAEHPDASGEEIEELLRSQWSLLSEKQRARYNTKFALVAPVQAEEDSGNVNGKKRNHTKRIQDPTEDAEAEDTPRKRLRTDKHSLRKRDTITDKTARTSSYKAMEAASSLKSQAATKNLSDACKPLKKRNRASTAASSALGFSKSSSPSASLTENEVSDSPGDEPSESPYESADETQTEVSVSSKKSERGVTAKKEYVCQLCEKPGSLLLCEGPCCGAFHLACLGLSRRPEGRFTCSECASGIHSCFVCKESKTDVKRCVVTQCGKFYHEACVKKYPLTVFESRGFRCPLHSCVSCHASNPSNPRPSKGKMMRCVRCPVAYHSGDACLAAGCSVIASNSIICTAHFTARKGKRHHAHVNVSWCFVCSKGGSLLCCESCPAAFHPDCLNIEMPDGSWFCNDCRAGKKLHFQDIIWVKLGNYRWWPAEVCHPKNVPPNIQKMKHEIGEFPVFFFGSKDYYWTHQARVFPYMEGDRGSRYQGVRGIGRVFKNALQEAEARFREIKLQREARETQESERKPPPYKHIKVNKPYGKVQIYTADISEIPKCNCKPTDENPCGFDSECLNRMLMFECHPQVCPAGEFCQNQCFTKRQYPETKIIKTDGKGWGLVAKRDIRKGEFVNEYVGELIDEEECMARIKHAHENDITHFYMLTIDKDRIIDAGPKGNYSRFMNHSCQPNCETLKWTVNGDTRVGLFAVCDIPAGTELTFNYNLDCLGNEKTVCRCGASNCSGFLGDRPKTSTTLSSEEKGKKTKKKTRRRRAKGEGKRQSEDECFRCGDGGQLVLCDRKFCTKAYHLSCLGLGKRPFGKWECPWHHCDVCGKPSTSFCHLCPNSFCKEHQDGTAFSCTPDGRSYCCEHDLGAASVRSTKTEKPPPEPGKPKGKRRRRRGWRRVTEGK
# INS1 = experiment: beta cell apoptosis inhibitors, cytokine rescue, dose response, luminescence, retest (AID 449756); assay type: functional, cell-based; conditions: Rattus norvegicus;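 further: cell death triggered by IL-1 beta plus TNF-alpha plus IFN-gamma mixture; protective hits raise ATP signal compared with cytokine alone wells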
# [9] = target: T5, Calpain-2 catalytic subunit (Sus scrofa, UniProt P43367); experiment: pig calpain II inhibitor potency, dose response, biochemical, fluorogenic peptide substrate (AID 1420); assay type: functional
# T5 sequence (P43367 whole entry): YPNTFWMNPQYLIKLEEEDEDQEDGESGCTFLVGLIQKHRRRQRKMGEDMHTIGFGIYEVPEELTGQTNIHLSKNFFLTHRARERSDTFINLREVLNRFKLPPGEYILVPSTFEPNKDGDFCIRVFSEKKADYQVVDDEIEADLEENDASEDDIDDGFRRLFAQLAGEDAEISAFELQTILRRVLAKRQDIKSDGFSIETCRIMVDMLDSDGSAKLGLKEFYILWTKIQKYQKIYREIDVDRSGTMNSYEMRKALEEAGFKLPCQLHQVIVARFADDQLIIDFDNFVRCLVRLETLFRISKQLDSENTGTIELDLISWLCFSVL
# [10] = microbe, parasite or virus in culture; assay type: functional; conditions: Mycobacterium tuberculosis
# [11] = NIH:OVCAR-3 ovarian cancer cell cytotoxicity, dose response, PAX8 inhibitor project, plate reader, dry powder samples (AID 743044); assay type: functional, cell-based
compound,measurement,setting,value
COc1cc(C2C(C(=O)c3ccco3)=C(O)C(=O)N2c2cc(C)on2)cc(Br)c1O (stereo not drawn),Ki,fMet-Leu-Phe receptor,47.7 µM (inactive)
same,IC50,[1],> 47.1 µM (inactive)
same,EC50,[2],> 53 µM (inactive)
COc1ccccc1Oc1c(C)oc2c(CN(C)C)c(O)ccc2c1=O,Ki,fMet-Leu-Phe receptor,> 66.7 µM (inactive)
CC(C)Nc1nc(C#N)nc(NC(C)C)n1,IC50,Prothrombin,23 µM (active)
O=C(Nc1cccc(NC(=O)c2ccc([N+](=O)[O-])o2)c1)c1ccco1,EC50,[3],7.34 µM (active)
same,EC50,Streptococcus,22.7 µM (active)
same,EC50,Streptokinase A,111 µM (active)
same,AC50,[4],66.2 µM (active)
same,AC50,[5],2.95 µM (active)
same,IC50,H9c2,> 79 µM (inactive)
same,AC50,Paired box protein Pax-8,5.2 µM (active)
Cc1nc2c(C)cccn2c1C(=O)C1=C(O)C(=O)N(CCN2CCOCC2)C1c1cccs1 (stereo not drawn),Ki,fMet-Leu-Phe receptor,> 66.7 µM (inactive)
same,AC50,Cytochrome P450 2C9,10 µM (inconclusive)
same,AC50,Cytochrome P450 2C19,8.91 µM (inconclusive)
Cc1ccc(OCc2nnc(S)n2N)cc1C,IC50,Prothrombin,> 50 µM (not active)
COC(=O)Cc1ccc(NC(=S)N2CCN(c3ccc(F)cc3)CC2)cc1,IC50,Prothrombin,> 50 µM (not active)
Nc1nc(-c2cccnc2)nn1C(=O)c1ccc(Cl)cc1,IC50,Prothrombin,0.781 µM (active)
COc1ccc(-c2cc(-c3ccc(OC)cc3)nc(-c3ccc4c(c3)NC(=O)CO4)c2)cc1,CC50,[6],38.7 µM (active)
COC(=O)c1[nH]c2ccccc2c1/C=C1\C(=O)NC(=O)N(c2ccc(Br)cc2)C1=O,IC50,[7],9.03 µM (active)
same,AC50,[8],> 20 µM (inactive)
O=C(c1cccnc1)n1nc(-c2ccco2)nc1NCc1cccs1,IC50,Prothrombin,0.001 µM (active)
COc1cccc(NS(=O)(=O)c2ccc3ncc(C(=O)NCCC(C)C)c(O)c3c2)c1,CC50,[6],> 40 µM (active)
CCOC(=O)N1CCC(NC(=O)c2cc(C(=O)Nc3ccc(OC)c(OC)c3)ccc2CO)CC1,Ki,fMet-Leu-Phe receptor,> 66.7 µM (inactive)
CCCCCCCNC1=CC(=O)CC(c2ccccc2)C1 (stereo not drawn),AC50,INS1,6.36 µM (active)
same,IC50,[9],9.58 µM (not active)
same,CC50,[10],38 µM (active)
CC(C)NC(=O)N(C)C[C@H]1OCCCC[C@H](C)Oc2ccc(NC(=O)Nc3ccc(C(F)(F)F)cc3)cc2C(=O)N([C@H](C)CO)C[C@@H]1C,AC50,[11],53.3 µM (active)
same,AC50,Paired box protein Pax-8,12.5 µM (active)
COc1ccc(OC)c(C2C(C(=O)c3ccco3)=C(O)C(=O)N2CCCN2CCOCC2)c1 (stereo not drawn),Ki,fMet-Leu-Phe receptor,26.4 µM (inactive)
O=C(NCC1CC1)c1ccc(-n2ccnc2)c2ccoc12,AC50,[8],14.1 µM (active)
CCN(CC)CCNC(=O)c1ccc(NC(=O)c2cn(-c3ccccc3)nc2-c2cccs2)cc1,AC50,INS1,6.79 µM (active)
same,CC50,[10],7.35 µM (active)
